Measurements: publication PMC5007854, “β-Nitrostyrenes as Potential Anti-leishmanial Agents” (Frontiers in Microbiology, 2016)
≈ marks a conversion by molar mass, not a printed value. Where two headings read alike, the source gives them in different places.

Legend:
[1] = test system: Staphylococcus epidermidis ATCC 14990; assay: Broth microdilution antibacterial susceptibility (MIC/MBC); assay type: cell-based; conditions: for MIC / MBC: Staphylococcus epidermidis; for MIC: ATCC14990, 24 h
How it was run: (§1)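 CLSI broth microdilution: Ca/Mg-supplemented Mueller-Hinton for bacteria (~5 × 10^5 CFU/mL, 24 h), MOPS-buffered RPMI 1640 pH 7.0 for fungi (Candida ~2.5 × 10^4, Aspergillus 0.4-5 × 10^4 CFU/mL, 48 h), 35°C, 1% DMSO, 64 to 0.12 μg/mL. MIC read visually; MBC/MFC by plating clear wells.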

[2] = test system: Staphylococcus aureus ATCC 29213; assay: as above; assay type: cell-based; conditions: Staphylococcus aureus; for MIC: ATCC29213, 24 h
How it was run: as §1

[3] = test system: Escherichia coli ATCC 25922; assay: as above; assay type: cell-based; conditions: for MIC / MBC: Escherichia coli; for MIC: ATCC25922, 24 h
How it was run: as §1

[4] = test system: Pseudomonas aeruginosa ATCC 27853; assay: as above; assay type: cell-based; conditions: for MIC / MBC: Pseudomonas aeruginosa; for MIC: ATCC27853, 24 h
How it was run: as §1

Candida species = assay: Broth microdilution, pooled statement for Candida species; assay type: cell-based; conditions: range over C. albicans and C. glabrata
Description: (§2) One reference each of the following species was used for their in vitro susceptibility to β-nitrostyrene in this study: Staphylococcus aureus ATCC 29213, Staphylococcus epidermidis ATCC 14990, Escherichia coli ATCC 25922, Pseudomonas aeruginosa ATCC 27853, Candida albicans ATCC 90028, Candida glabrata ATCC 90030, Aspergillus fumigatus ATCC 16424 and Aspergillus niger ATCC 16404. These strains were procured from the American Type Culture Collection (ATCC, Manassas, VA, USA).
(§3) The antibacterial and antifungal activities of the β-nitrostyrenes were performed by broth microdilution methods as per the guidelines of Clinical and Laboratory Standard Institute (Wayne, [1998], [2008a],[b],[c]) by using Mueller-Hinton broth (MHB; Becton-Dickinson, Cockeysville, MD, USA) supplemented with calcium (25 mg/L) and magnesium (12.5 mg/L) for bacterial strains while as RPMI 1640 medium with L-glutamine and without sodium bicarbonate, buffered to pH 7.0 with 0.165 M 3-(N-morpholino) propanesulfonic acid (MOPS; both from Sigma) was used for fungal strains. […] The plates were read visually and the minimum inhibitory concentration (MIC) was defined as the lowest concentration of test sample that prevented visible growth with respect to the growth control.

[5] = test system: gram-positive bacteria (S. aureus and S. epidermidis); assay: Broth microdilution, pooled statement for gram-positive bacteria; assay type: cell-based; conditions: Staphylococcus aureus; range over both strains
Description: as §2, §3

Aspergillus species = assay: Broth microdilution, pooled statement for Aspergillus species; assay type: cell-based; conditions: range over A. fumigatus and A. niger
Description: as §2, §3

[6] = read-out: MIC, Se ATCC 14990, broth microdilution, 35°C, 24 h
[7] = ATCC14990, read-out: MBC, Se ATCC 14990
[8] = broth microdilution, 35°C, 24 h
[9] = ATCC29213, read-out: MBC, Sa ATCC 29213
[10] = read-out: MIC, Ec ATCC 25922, broth microdilution, 35°C, 24 h
[11] = ATCC25922, read-out: MBC, Ec ATCC 25922
[12] = read-out: MIC, Pa ATCC 27853, broth microdilution, 35°C, 24 h
[13] = ATCC27853, read-out: MBC, Pa ATCC 27853
[14] = ATCC14990, ≥99.9% reduction of original inoculum, read-out: MBC, Se ATCC 14990
[15] = ATCC29213, ≥99.9% reduction of original inoculum, read-out: MBC, Sa ATCC 29213
[16] = ATCC25922, ≥99.9% reduction of original inoculum, read-out: MBC, Ec ATCC 25922
[17] = ATCC27853, ≥99.9% reduction of original inoculum, read-out: MBC, Pa ATCC 27853

CC/C(=C\c1ccc([N+](=O)[O-])cc1)[N+](=O)[O-] [Compound 9, 1-nitro-4-((E)-2-nitrobut-1-enyl) benzene]
melting point: 104 to 106 °C
MIC [1, 6]: 2 to 16 µg/mL (≈ 9 to 72 µM)
MBC [1, 7]: 4 µg/mL (≈ 18 µM)
MIC, Se ATCC 14990 [1, 8]: 4 µg/mL (≈ 18 µM)
MBC [2, 9]: 8 µg/mL (≈ 36 µM)
MIC [3, 10]: 16 to 32 µg/mL (≈ 72 to 144 µM)
MBC [3, 11]: 32 µg/mL (≈ 144 µM)
MIC, Ec ATCC 25922 [3, 8]: 16 µg/mL (≈ 72 µM)
MIC [4, 12]: 16 to 32 µg/mL (≈ 72 to 144 µM)
MBC [4, 13]: 32 µg/mL (≈ 144 µM)
MIC, Pa ATCC 27853 [4, 8]: 16 µg/mL (≈ 72 µM)

CC/C(=C\c1cccc([N+](=O)[O-])c1)[N+](=O)[O-] [Compound 12, 1-nitro-3-((E)-2-nitrobut-1-enyl) benzene]
MIC (Candida species): 0.25 to 2 µg/mL (≈ 1.13 to 9 µM)
melting point: 84 to 86 °C
MIC [5]: 0.25 to 0.5 µg/mL (≈ 1.13 to 2.25 µM)
MIC [1, 6]: 0.25 µg/mL (≈ 1.13 µM)
MBC [1, 7]: 0.25 µg/mL (≈ 1.13 µM)
MIC ([2]; read-out: MIC, Sa ATCC 29213, broth microdilution, 35°C, 24 h): 0.5 µg/mL (≈ 2.25 µM)
MBC [2, 9]: 0.5 µg/mL (≈ 2.25 µM)
MIC [3, 10]: 16 µg/mL (≈ 72 µM)
MBC [3, 11]: 16 µg/mL (≈ 72 µM)
MIC [4, 12]: 16 µg/mL (≈ 72 µM)
MBC [4, 13]: 16 µg/mL (≈ 72 µM)
MIC (Aspergillus species): 0.5 to 1 µg/mL (≈ 2.25 to 4.5 µM)

COc1ccc(/C=C(\C)[N+](=O)[O-])cc1 [Compound 14, 1-methoxy-4-((E)-2-nitroprop-1-enyl) benzene]
MIC ([1]; broth microdilution, 35°C, 24 h, read-out: MIC, Se ATCC 14990): 4 µg/mL (≈ 20.7 µM)
MBC [1, 14]: 4 µg/mL (≈ 20.7 µM)
MIC ([2]; broth microdilution, 35°C, 24 h, read-out: MIC, Sa ATCC 29213): 8 µg/mL (≈ 41.4 µM)
MBC [2, 15]: 8 µg/mL (≈ 41.4 µM)
MIC ([3]; broth microdilution, 35°C, 24 h, read-out: MIC, Ec ATCC 25922): 64 µg/mL (≈ 331 µM)
MBC [3, 16]: > 64 µg/mL
MIC ([4]; broth microdilution, 35°C, 24 h, read-out: MIC, Pa ATCC 27853): > 64 µg/mL
MBC [4, 17]: > 64 µg/mL

CC/C(=C\c1ccc(O)cc1)[N+](=O)[O-] [Compound 18, 4-((E)-2-nitrobut-1-enyl) phenol]
MBC [1, 14]: 8 µg/mL (≈ 41.4 µM)
MBC [2, 15]: 16 µg/mL (≈ 82.8 µM)
MBC [3, 16]: > 64 µg/mL
MBC [4, 17]: > 64 µg/mL
